According to ChEMBL document CHEMBL1201862, “PubChem BioAssay data set” (2004):
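Method: 48-hour compound exposure of cells in 96-well plates, five concentrations, linear interpolation of endpoints. At the GI50, growth is halved.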 Calls of active or inactive are those of the source. No stated cut-off is given here; in the data, active = GI50 up to about 1.1 µM and inactive = higher.

What was measured:
Assay in all cases: NCI anticancer screen, dose series, 48 h
[1] = system: RXF 393
[2] = system: T47D
[3] = system: SN12C
[4] = system: K562
[5] = system: SW-620
[6] = system: 786-0
[7] = system: HCT-15
[8] = system: OVCAR-8
[9] = system: NCI-H460
[10] = system: HCT-116
[11] = system: HOP-92
[12] = system: OVCAR-4
[13] = system: SF-268
[14] = system: UACC-62
[15] = system: U-251
[16] = system: SF-295
[17] = system: NCI-H522
[18] = system: HT-29
[19] = system: HL-60
[20] = system: SK-MEL-2
[21] = system: EKVX
[22] = system: SF-539
[23] = system: SK-MEL-28
[24] = system: RPMI-8226
[25] = system: UACC-257
[26] = system: BT-549
[27] = system: KM12
[28] = system: DU-145
[29] = system: MDA-MB-231
[30] = system: ACHN
[31] = system: SK-MEL-5
[32] = system: MOLT-4
[33] = system: IGROV-1
[34] = system: MDA-MB-435
[35] = system: CAKI-1
[36] = system: COLO 205
[37] = system: SK-OV-3
[38] = system: A549
[39] = system: NCI-H23
[40] = system: MCF7
[41] = system: MDA-N
[42] = system: SNB-19
[43] = system: M14
[44] = system: UO-31
[45] = system: TK-10
[46] = system: HCC 2998
[47] = system: Hs-578T
[48] = system: PC-3
[49] = system: NCI/ADR-RES
[50] = system: HOP-62
[51] = system: NCI-H226
[52] = system: OVCAR-5
[53] = system: Malme-3M
[54] = system: OVCAR-3
[55] = system: SNB-75
[56] = system: CCRF-CEM
[57] = system: SR
[58] = system: LOX IMVI
[59] = system: A498

For `CCN(CC)Cc1nc(C2CCC([N+](=O)[O-])O2)no1` (centres undefined), the GI50 [1] was 31 µM (inactive), the GI50 [2] was 27.2 µM (inactive) and the GI50 [3] was 47.1 µM (inactive). For the same compound, the GI50 [4] was 36.2 µM (inactive), the GI50 [5] was 19.4 µM (inactive) and the GI50 [6] was 40 µM (inactive). The GI50 [7] was 19.4 µM, the GI50 [8] was 30.1 µM (inactive) and the GI50 [9] was 20.5 µM (inactive). The GI50 [10] was 24.3 µM (inactive), the GI50 [11] was > 100 µM (inactive) and the GI50 [12] was 77.3 µM (inactive). For the same compound, the GI50 [13] was 24.5 µM (inactive), the GI50 [14] was 14.8 µM (inactive) and the GI50 [15] was 28.5 µM (inactive). The GI50 [16] was 30.1 µM (inactive), the GI50 [17] was 15.9 µM (inactive) and the GI50 [18] was 17 µM (inactive). The GI50 [19] was 16.6 µM (inactive), the GI50 [20] was 21.7 µM (inactive) and the GI50 [21] was > 100 µM (inactive). For the same compound, the GI50 [22] was 28.2 µM (inactive), the GI50 [23] was 20.3 µM (inactive) and the GI50 [24] was 31.3 µM (inactive). The GI50 [25] was 19.9 µM (inactive), the GI50 [26] was 23.3 µM (inactive) and the GI50 [27] was 26.5 µM (inactive). For the same compound, the GI50 [28] was 25.7 µM (inactive), the GI50 [29] was 26.7 µM (inactive) and the GI50 [30] was 98.2 µM (inactive). For the same compound, the GI50 [31] was 16.4 µM (inactive), the GI50 [32] was 53.5 µM (inactive) and the GI50 [33] was 41.5 µM (inactive). For the same compound, the GI50 [34] was 18.1 µM (inactive), the GI50 [35] was 72.8 µM (inactive) and the GI50 [36] was 16.6 µM (inactive). The GI50 [37] was > 100 µM (inactive), the GI50 [38] was 39.8 µM (inactive) and the GI50 [39] was 19.3 µM (inactive). For the same compound, the GI50 [40] was 15.6 µM (inactive), the GI50 [41] was 17.4 µM (inactive) and the GI50 [42] was 28.6 µM (inactive). For the same compound, the GI50 [43] was 14.5 µM (inactive), the GI50 [44] was > 100 µM (inactive) and the GI50 [45] was > 100 µM (inactive). The GI50 [46] was 20.6 µM (inactive), the GI50 [47] was 31.6 µM (inactive) and the GI50 [48] was 27.3 µM (inactive). The GI50 [49] was 26.7 µM (inactive), the GI50 [50] was 35.7 µM (inactive) and the GI50 [51] was 67.8 µM (inactive). The GI50 [52] was 29.3 µM (inactive), the GI50 [53] was 15.9 µM (inactive) and the GI50 [54] was 23.8 µM (inactive). The GI50 [55] was 16.6 µM (inactive), the GI50 [56] was 31.9 µM (inactive) and the GI50 [57] was 28.2 µM (inactive). The GI50 [58] was 31.4 µM (inactive).

With `O=[N+]([O-])c1ccc2nc3ccc([N+](=O)[O-])cn3c2c1` the GI50 [1] was 48.9 µM (inactive), the GI50 [2] was > 100 µM (inactive) and the GI50 [3] was 42.4 µM (inactive). For the same compound, the GI50 [4] was > 100 µM (inactive), the GI50 [5] was > 100 µM (inactive) and the GI50 [6] was 34.4 µM (inactive). For the same compound, the GI50 [7] was over 100 µM, the GI50 [8] was 39 µM (inactive) and the GI50 [9] was 43.3 µM (inactive). The GI50 [10] was 33.4 µM (inactive), the GI50 [11] was > 100 µM (inactive) and the GI50 [59] was 20.7 µM (inactive). For the same compound, the GI50 [12] was 29.1 µM (inactive), the GI50 [13] was 30.5 µM (inactive) and the GI50 [14] was 86.3 µM (inactive). The GI50 [15] was 36 µM (inactive), the GI50 [16] was > 100 µM (inactive) and the GI50 [17] was 23.7 µM (inactive). For the same compound, the GI50 [18] was 83 µM (inactive), the GI50 [19] was > 100 µM (inactive) and the GI50 [20] was > 100 µM (inactive). The GI50 [21] was 29.4 µM (inactive), the GI50 [22] was 52.6 µM (inactive) and the GI50 [23] was > 100 µM (inactive). For the same compound, the GI50 [25] was > 100 µM (inactive), the GI50 [26] was > 100 µM (inactive) and the GI50 [27] was > 100 µM (inactive). The GI50 [28] was 39.2 µM (inactive), the GI50 [29] was 33 µM (inactive) and the GI50 [30] was > 100 µM (inactive). The GI50 [31] was > 100 µM (inactive), the GI50 [32] was > 100 µM (inactive) and the GI50 [33] was 97.1 µM (inactive). The GI50 [34] was > 100 µM (inactive), the GI50 [35] was 33 µM (inactive) and the GI50 [36] was > 100 µM (inactive). For the same compound, the GI50 [37] was > 100 µM (inactive), the GI50 [38] was 39.1 µM (inactive) and the GI50 [39] was > 100 µM (inactive). The GI50 [40] was 63.7 µM (inactive), the GI50 [41] was > 100 µM (inactive) and the GI50 [42] was 36.1 µM (inactive). The GI50 [43] was > 100 µM (inactive), the GI50 [44] was 29.9 µM (inactive) and the GI50 [45] was 98.6 µM (inactive). The GI50 [47] was 27.4 µM (inactive), the GI50 [48] was > 100 µM (inactive) and the GI50 [49] was > 100 µM (inactive). For the same compound, the GI50 [50] was 17.6 µM (inactive), the GI50 [51] was > 100 µM (inactive) and the GI50 [52] was 32.5 µM (inactive). For the same compound, the GI50 [53] was 92.5 µM (inactive), the GI50 [55] was 43.1 µM (inactive) and the GI50 [56] was > 100 µM (inactive). For the same compound, the GI50 [57] was > 100 µM (inactive) and the GI50 [58] was 85.1 µM (inactive).
